Holding throughout (format): biochemical
One test concerns the target T1, PI3K gamma (Homo sapiens, UniProt P48736).
T1 construct: PI3Kγ BV-950 p110g(D144aa)-C-Term His Tag; His tag (C); made in house; host or cells: construct from the Roger Williams lab (MRC LMB) in pVL1393; baculovirus; Tn5 (Trichoplusia ni) or TiniPro insect cells
Kind of test: PI3 kinase assay (Kinase-Glo luminescence), PI3K gamma. Conditions: Enzymatic Data; read-out: PI3K gamma IC50 [umol]. The procedure:
(§1) In a more preferred assay, the kinase reaction is performed in a final volume of 10 μL per well of a low volume non binding CORNING, 384 well black plate (Cat. No. #3676). The final concentrations of ATP and phosphatidyl inositol (PI) in the assay are 1 μM and 10 μg/mL respectively. The reaction is started by the addition of ATP.
(§2) The components of the assay are added per well as follows:
(§3) […] is determined by a four parameter curve fitting routine that comes aloneg with “excel fit”. A 4 Parameter logistic equation is used to calculate IC50 values (IDBS XLfit) of the percentage inhibition of each compound at 8 concentrations (usually 10, 3.0, 1.0, 0.3, 0.1, 0.030, 0.010 and […]). Alternatively, IC50 values are calculated using idbsXLfit model 204, which is a 4 parameter logistic model.

Another test addresses T2, PI3K delta (Homo sapiens, UniProt O00329).
T2 construct: for the full-length p110-d subunit are generated and fused by overlapping PCR; His tag (C); made in house; host or cells: baculovirus; Tn5 (Trichoplusia ni) or TiniPro insect cells
The experiment in a line: PI3 kinase assay (Kinase-Glo luminescence), PI3K delta. Conditions: Enzymatic Data; read-out: PI3K delta IC50 [umol]. The procedure:
as §1, §2
(§4) 50 nL test compounds in 90% DMSO per well, in columns 1-20, 8 concentrations (1/3 and 1/3.33 serial dilution step) in single. • Low control: 50 nL of 90% DMSO in half the wells of columns 23-24 (0.45% in final). • High control: 50 nL of reference compound (e.g. compound of Example 7 in WO 2006/122806, incorporated by reference hereinin that regard) in the other half of columns 23-24 (2.5 μM in final). • Standard: 50 nL of reference compound as just mentioned diluted as the test compounds in columns 21-22 • 20 mL ‘buffer’ are prepared per assay: • 200 μL of 1M TRIS HCl pH7.5 (10 mM in final) • 60 μL of 1M MgCl2 (3 mM in final) • 500 μL of 2M NaCl (50 mM in final) • 100 μL of 10% CHAPS (0.05% in final) • 200 μL of 100 mM DTT (1 mM in final) • 18.94 mL of nanopure water • 10 mL ‘PI’ are prepared per assay: • 200 μL of 1 mg/ml L-alpha-Phosphatidylinositol (Liver Bovine, Avanti Polar Lipids Cat. No. 840042C MW=909.12) prepared in 3% OctylGlucoside (10 μg/ml in final) • 9.8 mL of ‘buffer’ • 10 mL ‘ATP’ are prepared per assay: • 6.7 μL of 3 mM stock of ATP giving a final concentration of 1 μM per well • 10 mL of ‘buffer’ • 2.5 mL of each PI3K construct are prepared per assay in ‘PI’ with the following final concentration : • 10 nM PI3K alfa B-1075 • 25 nM beta BV-949 • 10 nM delta BV-1060 • 150 nM gamma BV-950 • 5 μL of ‘PI/PI3K’ are added per well. • 5 μl ‘ATP’ are added per well to start the reaction. • The plates are then incubated at room temperature for 60 minutes (alfa, beta, delta) or 120 minutes (gamma). • The reaction is terminated by the addition of 10 μL Kinase-Glo (Promega Cat. No. #6714). • The assay plates are read after 10 minutes in Synergy 2 reader (BioTek, Vermont USA) with an integration time of 100 milliseconds and sensitivity set to 191. • Output : The High control is around 60'000 counts and the Low control is 30'000 or lower • This luminescence assay gives a useful Z′ ratio between 0.4 and 0.7
as §3
(§5) Testing with the following kinases in the test system mentioned above, with the kinases given in the following tables, the following IC 50 data can be obtained: […]
Background: Kinase-Glo measures the ATP left after a reaction by luminescence.

A further test addresses T3, PI3K beta (Homo sapiens, UniProt P42338).
T3 construct: for the full-length p110-b subunit are generated and fused by overlapping PCR; His tag (C); made in house; host or cells: baculovirus; Tn5 (Trichoplusia ni) or TiniPro insect cells
The experiment in a line: PI3 kinase assay (Kinase-Glo luminescence), PI3K beta. Conditions: Enzymatic Data; read-out: PI3K beta IC50 [umol]. The procedure: as §1, §2, §4, §3, §5

For a further test, the target named is T4, PI3K alfa (Homo sapiens, UniProt P42336).
T4 construct: for the p110-a subunit (with a deletion of the first 20 amino acids); His tag (C); made in house; host or cells: baculovirus; Tn5 (Trichoplusia ni) or TiniPro insect cells
T4 sequence (P42336 with tags, fused parts or gaps limits assumed): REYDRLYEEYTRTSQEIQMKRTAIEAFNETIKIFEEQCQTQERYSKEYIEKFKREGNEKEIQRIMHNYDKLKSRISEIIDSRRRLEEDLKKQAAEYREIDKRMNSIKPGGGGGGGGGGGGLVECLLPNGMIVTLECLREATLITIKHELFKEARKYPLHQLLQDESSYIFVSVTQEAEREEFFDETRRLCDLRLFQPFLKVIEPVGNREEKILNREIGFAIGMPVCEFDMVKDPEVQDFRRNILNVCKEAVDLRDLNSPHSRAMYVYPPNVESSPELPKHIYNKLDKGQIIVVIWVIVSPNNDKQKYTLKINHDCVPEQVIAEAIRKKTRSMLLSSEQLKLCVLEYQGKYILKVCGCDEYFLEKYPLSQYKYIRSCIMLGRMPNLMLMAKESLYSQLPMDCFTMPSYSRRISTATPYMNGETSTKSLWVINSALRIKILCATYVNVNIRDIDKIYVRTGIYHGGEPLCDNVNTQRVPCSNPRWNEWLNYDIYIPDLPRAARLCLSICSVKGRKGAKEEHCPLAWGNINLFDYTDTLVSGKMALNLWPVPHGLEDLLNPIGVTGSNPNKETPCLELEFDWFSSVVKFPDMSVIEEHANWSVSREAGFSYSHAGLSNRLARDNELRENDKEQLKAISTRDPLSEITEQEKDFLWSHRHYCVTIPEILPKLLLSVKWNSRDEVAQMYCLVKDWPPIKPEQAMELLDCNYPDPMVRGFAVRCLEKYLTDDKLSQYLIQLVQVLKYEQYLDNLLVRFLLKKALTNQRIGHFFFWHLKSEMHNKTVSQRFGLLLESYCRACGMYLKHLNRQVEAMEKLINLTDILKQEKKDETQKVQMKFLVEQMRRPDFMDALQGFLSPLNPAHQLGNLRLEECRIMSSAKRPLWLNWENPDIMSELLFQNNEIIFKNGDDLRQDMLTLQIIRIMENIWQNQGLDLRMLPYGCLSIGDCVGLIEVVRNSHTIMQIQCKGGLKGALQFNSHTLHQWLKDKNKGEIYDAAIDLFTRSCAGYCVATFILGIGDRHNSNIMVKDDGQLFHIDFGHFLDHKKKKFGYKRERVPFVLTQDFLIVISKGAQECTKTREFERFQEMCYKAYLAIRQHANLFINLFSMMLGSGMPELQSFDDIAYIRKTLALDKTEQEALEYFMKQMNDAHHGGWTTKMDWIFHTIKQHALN
The experiment in a line: PI3 kinase assay (Kinase-Glo luminescence), PI3K alfa. Conditions: Enzymatic Data; read-out: PI3K alfa IC50 [umol]. As to the method:
as §1, §2, §4, §3, §5

T1 sequence (P48736 144-1102 limits assumed): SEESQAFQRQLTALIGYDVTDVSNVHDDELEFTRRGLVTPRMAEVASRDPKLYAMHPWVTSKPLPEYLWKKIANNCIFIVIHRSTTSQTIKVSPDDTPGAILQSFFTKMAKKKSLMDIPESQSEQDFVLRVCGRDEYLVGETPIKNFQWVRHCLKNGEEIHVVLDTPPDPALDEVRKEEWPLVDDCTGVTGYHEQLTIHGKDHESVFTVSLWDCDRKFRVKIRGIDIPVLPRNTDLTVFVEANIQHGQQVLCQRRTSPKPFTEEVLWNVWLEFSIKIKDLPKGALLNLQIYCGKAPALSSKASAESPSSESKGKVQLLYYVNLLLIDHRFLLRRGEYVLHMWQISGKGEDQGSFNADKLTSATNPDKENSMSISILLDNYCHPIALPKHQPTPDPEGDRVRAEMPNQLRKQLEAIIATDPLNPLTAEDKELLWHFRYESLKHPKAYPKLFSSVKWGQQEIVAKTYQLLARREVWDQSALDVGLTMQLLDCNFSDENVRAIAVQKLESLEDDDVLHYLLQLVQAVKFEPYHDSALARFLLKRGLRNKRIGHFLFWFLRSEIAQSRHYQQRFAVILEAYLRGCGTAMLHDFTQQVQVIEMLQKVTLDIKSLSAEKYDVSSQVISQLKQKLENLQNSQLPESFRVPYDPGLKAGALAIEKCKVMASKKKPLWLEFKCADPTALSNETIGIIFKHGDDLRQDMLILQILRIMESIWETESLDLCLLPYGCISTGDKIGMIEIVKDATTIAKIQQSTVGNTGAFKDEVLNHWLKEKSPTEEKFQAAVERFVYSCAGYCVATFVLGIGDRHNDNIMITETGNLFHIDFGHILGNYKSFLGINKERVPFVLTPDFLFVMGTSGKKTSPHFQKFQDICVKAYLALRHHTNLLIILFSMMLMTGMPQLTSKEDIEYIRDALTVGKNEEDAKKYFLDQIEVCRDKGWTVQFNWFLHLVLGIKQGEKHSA
T2 sequence (O00329 with tags, fused parts or gaps limits assumed): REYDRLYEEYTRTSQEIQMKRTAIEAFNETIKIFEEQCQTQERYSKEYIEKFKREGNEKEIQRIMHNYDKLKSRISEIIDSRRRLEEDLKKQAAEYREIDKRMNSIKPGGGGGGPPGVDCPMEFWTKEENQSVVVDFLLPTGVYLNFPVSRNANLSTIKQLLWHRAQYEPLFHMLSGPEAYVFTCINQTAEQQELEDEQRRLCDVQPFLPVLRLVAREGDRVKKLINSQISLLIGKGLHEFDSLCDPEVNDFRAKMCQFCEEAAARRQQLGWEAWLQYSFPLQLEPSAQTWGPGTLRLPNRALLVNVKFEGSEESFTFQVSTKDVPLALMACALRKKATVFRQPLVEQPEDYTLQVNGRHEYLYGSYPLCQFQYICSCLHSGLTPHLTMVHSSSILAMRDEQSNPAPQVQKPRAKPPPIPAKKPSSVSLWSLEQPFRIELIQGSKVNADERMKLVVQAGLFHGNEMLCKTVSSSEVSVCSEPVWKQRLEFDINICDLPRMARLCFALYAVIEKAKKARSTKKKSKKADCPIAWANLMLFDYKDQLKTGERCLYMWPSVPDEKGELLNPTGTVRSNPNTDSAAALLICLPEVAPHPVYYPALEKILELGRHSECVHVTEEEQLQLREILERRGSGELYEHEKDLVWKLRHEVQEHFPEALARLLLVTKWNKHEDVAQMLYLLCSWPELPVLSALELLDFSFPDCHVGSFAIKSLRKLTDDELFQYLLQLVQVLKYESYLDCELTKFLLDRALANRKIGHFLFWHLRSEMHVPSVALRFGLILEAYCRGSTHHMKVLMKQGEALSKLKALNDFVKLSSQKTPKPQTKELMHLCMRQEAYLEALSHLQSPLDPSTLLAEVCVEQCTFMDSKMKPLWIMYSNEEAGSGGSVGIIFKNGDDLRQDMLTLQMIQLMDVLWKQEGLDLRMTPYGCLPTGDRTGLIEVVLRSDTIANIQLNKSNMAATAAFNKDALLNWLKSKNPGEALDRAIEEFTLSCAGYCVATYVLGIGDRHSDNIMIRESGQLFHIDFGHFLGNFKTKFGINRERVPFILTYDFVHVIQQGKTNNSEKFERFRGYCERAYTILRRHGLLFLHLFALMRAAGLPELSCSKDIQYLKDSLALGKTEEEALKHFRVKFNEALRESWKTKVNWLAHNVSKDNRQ
T3 sequence (P42338 with tags, fused parts or gaps limits assumed): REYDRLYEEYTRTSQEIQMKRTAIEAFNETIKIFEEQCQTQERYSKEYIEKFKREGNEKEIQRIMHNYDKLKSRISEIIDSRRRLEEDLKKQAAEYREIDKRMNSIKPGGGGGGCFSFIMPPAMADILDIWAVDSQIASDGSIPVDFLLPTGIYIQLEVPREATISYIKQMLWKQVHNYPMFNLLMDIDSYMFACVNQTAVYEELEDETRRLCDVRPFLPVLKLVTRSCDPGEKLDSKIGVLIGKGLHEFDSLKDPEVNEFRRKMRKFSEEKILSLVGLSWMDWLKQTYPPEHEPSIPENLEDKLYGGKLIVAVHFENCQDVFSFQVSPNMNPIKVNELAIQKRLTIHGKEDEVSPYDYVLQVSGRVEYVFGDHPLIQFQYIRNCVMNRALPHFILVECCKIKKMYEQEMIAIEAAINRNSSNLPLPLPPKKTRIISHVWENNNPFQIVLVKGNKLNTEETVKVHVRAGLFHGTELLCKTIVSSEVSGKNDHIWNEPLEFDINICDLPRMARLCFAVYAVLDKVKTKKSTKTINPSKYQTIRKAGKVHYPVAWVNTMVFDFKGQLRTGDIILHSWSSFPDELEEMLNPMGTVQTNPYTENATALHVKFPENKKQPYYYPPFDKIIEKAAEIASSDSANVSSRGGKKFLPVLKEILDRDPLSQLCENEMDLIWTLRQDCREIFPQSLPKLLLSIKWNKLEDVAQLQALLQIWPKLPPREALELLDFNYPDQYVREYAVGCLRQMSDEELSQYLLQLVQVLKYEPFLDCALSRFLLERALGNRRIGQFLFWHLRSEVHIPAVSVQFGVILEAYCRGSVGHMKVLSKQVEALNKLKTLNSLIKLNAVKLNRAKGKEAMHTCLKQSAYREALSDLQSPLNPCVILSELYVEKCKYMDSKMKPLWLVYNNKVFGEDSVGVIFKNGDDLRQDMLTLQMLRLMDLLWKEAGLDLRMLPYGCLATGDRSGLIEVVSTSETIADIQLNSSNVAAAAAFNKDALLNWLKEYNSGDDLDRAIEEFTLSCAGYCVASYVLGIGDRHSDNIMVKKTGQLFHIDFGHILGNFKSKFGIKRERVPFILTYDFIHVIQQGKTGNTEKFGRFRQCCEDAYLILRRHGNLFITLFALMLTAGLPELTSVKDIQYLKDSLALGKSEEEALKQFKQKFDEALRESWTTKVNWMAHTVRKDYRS

`COC(=O)NCCCOc1ccc(-c2ccc3ncc(-c4cnc(N)c(C(F)(F)F)c4)n3n2)cc1OC` [Example 50, (3-{4-[3-(6-Amino-5-trifluoromethyl-pyridin-3-yl)-imidazo[1,2-b]pyridazin-6yl]-2-methoxy-phenoxy}-propyl)-carbamic acid methyl ester]: the IC50 was 2740 nM at PI3K gamma, 1010 nM on PI3K delta, 2190 nM on PI3K beta and 165 nM on PI3K alfa.

`COc1cc(-c2ccc3ncc(-c4cnc(N)c(C(F)(F)F)c4)n3n2)ccc1OCCCNC(=O)C(C)C` [Example 51]: the IC50 worked out at 6050 nM on PI3K gamma, 886 nM at PI3K delta, 1390 nM on PI3K beta and 92 nM at PI3K alfa.

As for `COc1cc(-c2ccc3ncc(-c4cnc(N)c(C(F)(F)F)c4)n3n2)ccc1OCCCNC(C)=O` [Example 52, N-(3-{4-[3-(6-Amino-5-trifluoro-methyl-pyridin-3-yl)-imidazo [1,2-b]pyridazin-6-yl]-2-methoxy-phenoxy}-propyl)-acetamide], the IC50 at PI3K gamma came to 2220 nM; on PI3K delta, 295 nM; at PI3K beta, 364 nM; on PI3K alfa it was 22 nM.

For `COc1ccc(-c2ccc3ncc(-c4cncc(C(F)(F)F)c4)n3n2)cc1OC` [Example 53, 6-(3,4-Di-methoxy-phenyl)-3-(5-trifluoro-methyl-pyridin-3-yl)-imidazo [1,2-b] pyridazine], the IC50 at PI3K gamma was 1080 nM; at PI3K delta, 401 nM; on PI3K beta it was 1240 nM; on PI3K alfa, 275 nM.

In the case of `Nc1ncc(-c2ccc3ncc(-c4cncc(C(F)(F)F)c4)n3n2)cc1C(F)(F)F` [Example 54, 3-Trifluoro-methyl-5-[3-(5-trifluoro-methyl-pyridin-3-yl)-imidazo [1,2-b]pyridazin-6-yl]-pyridin-2-ylamine], the IC50 came out at 814 nM at PI3K gamma, 231 nM on PI3K delta, 274 nM at PI3K beta and 147 nM at PI3K alfa.

For the molecule `NCCCOc1ccc(-c2ccc3ncc(-c4cnc(N)c(C(F)(F)F)c4)n3n2)cc1` [Example 56, 5-{6-[4-(3-Amino-propoxy)-phenyl]-imidazo [1,2-b]pyridazin-3-yl}-3-trifluoro-methyl-pyridin-2-ylamine], the IC50 at PI3K gamma was 56 nM; at PI3K delta, 167 nM; at PI3K beta it was 183 nM; at PI3K alfa, 203 nM.

For the molecule `CC(C)C(=O)NCCCOc1ccc(-c2ccc3ncc(-c4cnc(N)c(C(F)(F)F)c4)n3n2)cc1` [Example 57, N-(3-{4-[3-(6-Amino-5-trifluoro-methyl-pyridin-3-yl)-imidazo [1,2-b]pyridazin-6-yl]-phenoxy}-propyl)-isobutyr-amide], the IC50 stood at 1040 nM on PI3K gamma, 384 nM on PI3K delta, 3370 nM on PI3K beta and 23 nM at PI3K alfa.

Take `Nc1ncc(-c2cnc3ccc(-c4ccc(OCCCNC(=O)C5CC5)cc4)nn23)cc1C(F)(F)F` [Example 58, Cyclopropanecarboxylic acid (3-{4-[3-(6-amino-5-trifluoromethyl-pyridin-3-yl)-imidazo[1,2-b]pyridazin-6-yl]-phenoxy}-propyl)-amide]: the IC50 is over 9100 nM at PI3K gamma, 2140 nM on PI3K delta, over 9100 nM at PI3K beta and 87 nM at PI3K alfa.

Consider `COc1cc(-c2ccc3ncc(-c4cnc(N)c(C(F)(F)F)c4)n3n2)ccc1OCCN` [Example 59, 5-{6-[4-(2-Amino-ethoxy)-3-methoxy-phenyl]-imidazo [1,2-b]pyridazin-3-yl}-3-trifluoro-methyl-pyridin-2-ylamine], for which the IC50 on PI3K gamma worked out at 401 nM; on PI3K delta, 60 nM; on PI3K beta, 24 nM; on PI3K alfa, 33 nM.

Take `COc1cc(-c2ccc3ncc(-c4cnc(N)c(C(F)(F)F)c4)n3n2)ccc1OCCNC(=O)C(C)C` [Example 60, N-(2-{4-[3-(6-Amino-5-trifluoro-methyl-pyridin-3-yl)-imidazo [1,2-b]pyridazin-6-yl]-2-methoxy-phenoxy}-ethyl)-isobutyr-amide]: the IC50 on PI3K gamma amounted to 159 nM; at PI3K delta, 223 nM; on PI3K beta it was 267 nM; at PI3K alfa, 36 nM.

`COc1cc(-c2ccc3ncc(-c4cnc(N)c(C(F)(F)F)c4)n3n2)ccc1OCCNC(=O)C1CC1` [Example 61, Cyclo-propane-carboxylic acid (2-{4-[3-(6-amino-5-trifIuoro-methyl-pyridin-3-yl)-imidazo [1,2-b)pyridazin-6-yl]-2-methoxy-phenoxy}-ethyl)-amide]: the IC50 on PI3K gamma was 884 nM; on PI3K delta, 428 nM; on PI3K beta it was 1000 nM; at PI3K alfa it was 205 nM.

`COc1cc(-c2ccc3ncc(-c4cnc(N)c(C(F)(F)F)c4)n3n2)ccc1OCCNC(C)=O` [Example 62, N-(2-{4-[3-(6-Amino-5-trifluoro-methyl-pyridin-3-yl)-imidazo[1,2-b]pyridazin-6-yl]-2-methoxy-phenoxy}-ethyl)-acetamide]: the IC50 on PI3K gamma is 1360 nM; on PI3K delta, 138 nM; at PI3K beta it was 156 nM; on PI3K alfa, 28 nM.

In the case of `NCCCOc1ccc(-c2ccc3ncc(-c4cnc(N)c(C(F)(F)F)c4)n3n2)cc1OC(F)(F)F` [Example 63, 5-{6-[4-(3-Amino-propoxy)-3-trifluoro-methoxy-phenyl]-imidazo [1,2-b]pyridazin-3-yl}-3-trifluoro-methyl-pyridin-2-ylamine], the IC50 came to 39 nM at PI3K gamma, 180 nM at PI3K delta, 176 nM on PI3K beta and 153 nM at PI3K alfa.

For `CC(C)C(=O)NCCCOc1ccc(-c2ccc3ncc(-c4cnc(N)c(C(F)(F)F)c4)n3n2)cc1OC(F)(F)F` [Example 64, N-(3-{4-[3-(6-Amino-5-trifluoro-methyl-pyridin-3-yl)-imidazo [1,2-b]pyridazin-6-yl]-2-trifluoro-methoxy-phenoxy}-propyl)-iso-butyramide], the IC50 on PI3K gamma is 316 nM; on PI3K delta, 6810 nM; on PI3K beta, over 9100 nM; on PI3K alfa, 562 nM.

For `COc1cc(-c2ccc3ncc(-c4cnc(N)c(C(F)(F)F)c4)n3n2)ccc1OCCCNC(=O)C1CC1` [Example 65], the IC50 on PI3K gamma is 483 nM; on PI3K delta it was 345 nM; on PI3K beta, 505 nM; on PI3K alfa, 26 nM.

Turning to `Nc1cnc(-c2cnc3ccc(-c4cnc(N)c(C(F)(F)F)c4)nn23)cn1` [Example 66, 5-[6-(6-Amino-5-trifluoro-methyl-pyridin-3-yl)-imidazo [1,2-b]pyridazin-3-yl]-pyrazin-2-ylamine], the IC50 is 479 nM on PI3K gamma, 17 nM on PI3K delta, 3 nM at PI3K beta and 8 nM on PI3K alfa.

The values above are taken from patent US20100311729A1, “Substituted imidazopyridazines and pyrrolopyrimidines as lipid kinase inhibitors” (priority 2007, published 2010).
